Results as given in patent US8178675B2, “Compounds for the treatment of metabolic disorders” (Wellstat Therapeutics Corporation, priority 2005, dated 2012).

Assays:
db/db mice = assay: Antidiabetic effects in db/db mouse model of type II diabetes (serum chemistry after 2 weeks daily oral dosing); assay type: in vivo
Excerpt: db/db mice have a defect in leptin signaling, leading to hyperphagia, obesity and diabetes. Moreover, unlike ob/ob mice on a C57BL/6J background, db/db mice on a C57BLKS background undergo failure of their insulin-producing pancreatic islet cells, resulting in progression from hyperinsulinemia (associated with peripheral insulin resistance) to hypoinsulinemic diabetes.
Male obese (db/db homozygote) C57BL/Ksola mice approximately 8 weeks of age, were obtained from Jackson Labs (Bar Harbor, Me.) and randomly assigned into groups of 5-7 animals such that the body weights (40-45 g) and serum glucose levels (≧300 mg/dl in fed state) were similar between groups; male lean (db/+ heterozygote) mice served as cohort controls. A minimum of 7 days was allowed for adaptation after arrival. All animals were maintained under controlled temperature (23° C.), relative humidity (50±5%) and light (7:00-19:00), and allowed free access to standard chow (Formulab Diet 5008, Quality Lab Products, Elkridge, Md.) and water.
Mice received daily oral doses of vehicle or Compound CW for 2 weeks. At the end of the treatment period 100 μl of venous blood was withdrawn in a heparinized capillary tube from the retro-orbital sinus for serum chemistry analysis. Mice were in the fed state at the time of blood sampling.

human PPARα = biological target: T1, human PPARα (Homo sapiens, UniProt Q07869); assay: Human PPARα transactivation assay (Gal4/PPAR-LBD, luciferase reporter); assay type: cell-based
T1 construct: expressed in transfected cells
T1 sequence (Q07869 167-468): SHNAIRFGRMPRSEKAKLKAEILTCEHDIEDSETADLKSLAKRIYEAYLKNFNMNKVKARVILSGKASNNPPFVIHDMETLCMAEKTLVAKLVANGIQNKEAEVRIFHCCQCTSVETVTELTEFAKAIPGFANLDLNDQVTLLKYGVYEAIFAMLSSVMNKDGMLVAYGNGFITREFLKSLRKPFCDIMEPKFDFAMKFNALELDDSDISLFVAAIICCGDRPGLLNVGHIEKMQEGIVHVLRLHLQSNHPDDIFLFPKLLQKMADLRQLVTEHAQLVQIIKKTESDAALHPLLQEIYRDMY
Excerpt: In order to examine the activity of Compound CW on PPARα, a transactivation assay was used. Transactivation assays take advantage of the modular domain structure of nuclear receptors. A fusion protein was made between the human or mouse PPAR ligand binding domain (PPAR-LBD) and the yeast Gal4 DNA binding domain (“activator plasmid”). The reporter gene construct consisted of the Gal4 DNA binding element in cis with a luciferase reporter. When an agonist binds the Gal4/PPAR-LBD, the fusion protein binds the Gal4 DNA binding element on the reporter gene resulting in transcription of the firefly luciferase gene. Luciferase oxidizes the substrate luciferin in an ATP-dependent reaction; the amount of light given off is a direct measure of the level of the enzyme and, consequently, of the activity of the ligand binding the PPAR-LBD.
The activator expressing plasmids contained a yeast GAL4 DNA-binding domain fused to the human PPARα ligand binding and hinge domains (a.a. 167-468). The reporter plasmid used was pFRLuc, which has the firefly luciferase gene under the control of a GAL4 UAS containing promoter (Stratagene (La Jolla, Calif.)).
One day prior to transfection, cells were seeded in 24-well plates at a density of 5×10^4-2×10^5 cells/well, depending upon the cell type. Cells were transfected using Lipofectamine 2000 reagent (Invitrogen (Calsbad, Calif.)). […]

[1] = after 2 weeks of daily oral dosing

| Structure (SMILES) | Glucose (serum glucose) (db/db mice; 100 mg/kg daily oral, 2 weeks, fed state, vehicle control 735 ± 66) | Effect on blood glucose (db/db mice; [1]) | Effect on serum triglycerides (db/db mice; [1]) | Triglycerides ± SEM (serum triglycerides) (db/db mice; daily oral dosing 2 weeks, fed state, vehicle 221 ± 62) | Activity on human PPARα (type of agonism) (human PPARα; Gal4/human PPARα-LBD luciferase transactivation, 24 hours treatment, FIG. 1) | Maximal activity in transactivation assay (human PPARα; positive control, same experiment) |
| --- | --- | --- | --- | --- | --- | --- |
| Cc1cccc(C)c1COc1cccc(C(C)C(=O)O)c1 (racemic) [Compound CW, 2-(3-(2,6-Dimethylbenzyloxy)-phenyl)-2-(R,S)-methylacetic acid] | 171 ± 66 mg/dL | significant reduction | reduced | 109 ± 13 mg/dL | partial agonist |  |
| Cc1cccc(Nc2cc(Cl)nc(SCC(=O)O)n2)c1C [Wy-14,643, reference compound] |  |  |  |  |  | ~40,000 RLU |
